Patent US12391737B2, “Soluble NPY2 receptor agonists” (Boehringer Ingelheim International GmbH, priority 2020, dated 2025)
*1 amine or outer side, *2 acyl side, *3 side chain or, on linkers, in order; H or OH if unused. Where a SMILES comes first, the peptide text is derived from it. Side-chain parts run from the residue outwards. The star is where a group is joined. C18 diacid = O=C(O)CCCCCCCCCCCCCCCCC(=O)*; γGlu = O=C(O)[C@H](CCC(=O)[*:2])N[*:1]; Isovaleryl = CC(C)CC(=O)*; Ahx = NCCCCCC(=O)O

How the values were obtained:
[1] = biological target: T1, Human Neuropeptide Y2 Receptor (Homo sapiens, UniProt P49146); test: Radioligand binding competition assay (RLB); details: Table 3, 125I-PYY(1-36) competition; read-out: Ki
T1 construct: purchased CHEMICON HTS066M
T1 sequence (P49146 1-381): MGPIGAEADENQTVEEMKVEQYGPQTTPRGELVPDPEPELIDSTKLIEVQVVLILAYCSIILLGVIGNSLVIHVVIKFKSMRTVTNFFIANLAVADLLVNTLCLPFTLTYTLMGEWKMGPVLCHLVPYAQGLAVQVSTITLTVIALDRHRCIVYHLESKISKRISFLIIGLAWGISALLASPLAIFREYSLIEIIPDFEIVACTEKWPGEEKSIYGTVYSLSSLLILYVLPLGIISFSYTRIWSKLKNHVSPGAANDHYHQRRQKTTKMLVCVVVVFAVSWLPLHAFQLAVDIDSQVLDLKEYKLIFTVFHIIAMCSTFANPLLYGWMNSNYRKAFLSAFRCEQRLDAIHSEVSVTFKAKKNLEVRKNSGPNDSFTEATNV
Method in brief: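 Filtration competition binding on membranes from cells expressing the receptor, 0.5 μg protein/well, in 50 mM HEPES, 5 mM MgCl2, 1 mM CaCl2, pH 7.4, with 0.2% ovalbumin. Incubation ran 2 h at room temperature, followed by GF/C filtration and scintillation counting. IC50 came from nonlinear sigmoidal fits.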

[2] = Solubility determination; details: for Sol6: pH 6; for Sol7: pH 7
Method in brief: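 Shake-flask style: 10 mg/ml peptide (TFA salt), 0.1 M sodium diphosphate pH 6.4/7.0, 600 rpm, 2 h, RT; filter; dilute 1 mg/ml in 50% MeCN; RP-UPLC, 0–100% B over 2 min, 50 °C. Solubility = sample/control area ratio. Final pH recorded.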

Ki [1] [nM]	Sol6 [2] [mg/mL]	Sol7 [2] [mg/mL]	Structure (SMILES)
1.55	9.3	9.3	CC[C@H](C)[C@H](NC(=O)[C@H](Cc1ccc(O)cc1)NC(=O)[C@H](Cc1ccc(O)cc1)NC(=O)[C@H](CCCNC(=N)N)NC(=O)[C@H](CCC(N)=O)NC(=O)[C@H](CC(C)C)NC(=O)[C@H](CCC(=O)O)NC(=O)[C@H](CCC(=O)O)NC(=O)[C@@H]1CCCN1C(=O)[C@@H](NC(=O)[C@H](C)NC(=O)[C@H](CC(=O)O)NC(=O)[C@H](C)NC(=O)[C@H](CCC(=O)O)NC(=O)[C@@H]1CCCN1C(=O)[C@H](CCCCNC(=O)CCCCCNC(=O)CC[C@H](NC(=O)CCCCCCCCCCCCCCCCC(=O)O)C(=O)O)NC(=O)[C@H](CCC(=O)O)NC(=O)[C@@H]1CCCN1C(=O)[C@H](C)NC(=O)CC(C)C)[C@@H](C)O)C(=O)N[C@@H](CO)C(=O)N[C@@H](CC(C)C)C(=O)N[C@@H](CCCNC(=N)N)C(=O)N[C@@H](Cc1c[nH]cn1)C(=O)N[C@@H](Cc1ccc(O)cc1)C(=O)N[C@@H](Cc1ccc(O)cc1)C(=O)N[C@@H](CC(N)=O)C(=O)N[C@@H](Cc1c[nH]c2ccccc12)C(=O)N[C@@H](CC(C)C)C(=O)N[C@H](C(=O)N[C@@H](CCCNC(=N)N)C(=O)N[C@@H](CCC(N)=O)C(=O)N[C@@H](CCCNC(=N)N)C(=O)N[C@@H](Cc1ccc(O)cc1)C(N)=O)[C@@H](C)O [Compound 25, N{alpha-4}-(3-methylbutanoyl)-N{epsilon-7}-(6-[(4S)-4-carboxy-4-(17-carboxyheptadecanamido)butanamido]hexanoyl)[4A,7K,9E,10A,13T,18Q,22I,28Y,30W,31L]-hPYY(4-36)] (Isovaleryl-APEK([Ahx-γGlu-C18 diacid])PEADATPEELQRYYISLRHYYNWLTRQRY-NH2)
1.4	0.0	2.4	CC(C)CC(=O)N[C@@H](C)C(=O)N1CCC[C@H]1C(=O)N[C@@H](C)C(=O)N[C@@H](CCCCNC(=O)CCCCCNC(=O)CC[C@H](NC(=O)CCCCCCCCCCCCCCCCC(=O)O)C(=O)O)C(=O)N1CCC[C@H]1C(=O)N[C@@H](CCC(=O)O)C(=O)N[C@@H](CCC(=O)O)C(=O)N[C@@H](C)C(=O)N[C@@H](C)C(=O)N[C@H](C(=O)N1CCC[C@H]1C(=O)N[C@@H](CCC(=O)O)C(=O)N[C@@H](CCC(=O)O)C(=O)N[C@@H](CC(C)C)C(=O)N[C@@H](CCC(N)=O)C(=O)N[C@@H](CCCNC(=N)N)C(=O)N[C@@H](Cc1ccc(O)cc1)C(=O)N[C@@H](Cc1ccc(O)cc1)C(=O)N[C@H](C(=O)N[C@@H](CO)C(=O)N[C@@H](CC(C)C)C(=O)N[C@@H](CCCNC(=N)N)C(=O)N[C@@H](Cc1c[nH]cn1)C(=O)N[C@@H](Cc1ccc(O)cc1)C(=O)N[C@@H](Cc1ccc(O)cc1)C(=O)N[C@@H](CC(N)=O)C(=O)N[C@@H](Cc1c[nH]c2ccccc12)C(=O)N[C@@H](CC(C)C)C(=O)N[C@H](C(=O)N[C@@H](CCCNC(=N)N)C(=O)N[C@@H](CCC(N)=O)C(=O)N[C@@H](CCCNC(=N)N)C(=O)N[C@@H](Cc1ccc(O)cc1)C(N)=O)[C@@H](C)O)C(C)C)[C@@H](C)O [Compound 35, N{alpha-4}-(3-methylbutanoyl)-N{epsilon-7}-(6-[(4S)-4-carboxy-4-(17-carboxyheptadecanamido)butanamido]hexanoyl)[4A,6A,7K,9E,11A,13T,18Q,22V,28Y,30W,31L]-hPYY(4-36)]
